This note sets out measurements from ChEMBL document CHEMBL1122330, “Studies on v-triazoles. 7. Antiallergic 9-oxo-1H,9H-benzopyrano[2,3-d]-v-triazoles” (1983).

SMILES strings stand for the structures. Bounds are passed on as bounds.

Holding throughout (format): functional
Experiment [1] relates to Rattus norvegicus. Nature of the experiment: Inhibition of passive cutaneous anaphylaxis (PCA) in Charles Rivers Sprague-Dawley rat after intravenous administration; value range […].
In experiment [2] the test system is Rattus norvegicus. Nature of the experiment: Inhibition of passive cutaneous anaphylaxis (PCA) in Charles Rivers Sprague-Dawley rat after intravenous administration.
Experiment [3] concerns Rattus norvegicus. Nature of the experiment: Inhibition of passive cutaneous anaphylaxis (PCA) in Charles Rivers Sprague-Dawley rat after intravenous administration; value range from 0.3 to 0.5.
The subject of experiment [4] is Rattus norvegicus. The experiment can be described thus: Inhibition of passive cutaneous anaphylaxis (PCA) in Charles Rivers Sprague-Dawley rat after intravenous administration; value range from 1.6 to 3.0.
Experiment [5] concerns Rattus norvegicus. Nature of the experiment: Inhibition of passive cutaneous anaphylaxis (PCA) in Charles Rivers Sprague-Dawley rat after intravenous administration; value range from 4.1 to 5.8.
Experiment [6] deals with Rattus norvegicus. The experiment can be described thus: Inhibition of passive cutaneous anaphylaxis (PCA) in Charles Rivers Sprague-Dawley rat after intravenous administration; value range from 0.1 to 0.4.
Experiment [7] deals with Rattus norvegicus. Nature of the experiment: Inhibition of passive cutaneous anaphylaxis (PCA) in Charles Rivers Sprague-Dawley rat after intravenous administration; value range from 0.8 to 1.4.
Experiment [8] relates to Rattus norvegicus. The experiment can be described thus: Inhibition of passive cutaneous anaphylaxis (PCA) in Charles Rivers Sprague-Dawley rat after intravenous administration; value range from 0.03 to 0.6.
Experiment [9] has as its system Rattus norvegicus. Nature of the experiment: Inhibition of passive cutaneous anaphylaxis (PCA) in Charles Rivers Sprague-Dawley rat after intravenous administration; value range from 0.4 to 0.9.
The test system of experiment [10] is Rattus norvegicus. Nature of the experiment: Inhibition of passive cutaneous anaphylaxis (PCA) in Charles Rivers Sprague-Dawley rat after intravenous administration; value range from 1.4 to 2.4.
Experiment [11] deals with Rattus norvegicus. The experiment can be described thus: Inhibition of passive cutaneous anaphylaxis (PCA) in Charles Rivers Sprague-Dawley rat after intravenous administration; value range from 0.05 to 0.6.
Experiment [12] concerns Rattus norvegicus. Nature of the experiment: Inhibition of passive cutaneous anaphylaxis (PCA) in Charles Rivers Sprague-Dawley rat after intravenous administration; value range from 0.8 to 1.6.
In experiment [13] the test system is Rattus norvegicus. The experiment can be described thus: Inhibition of passive cutaneous anaphylaxis (PCA) in Charles Rivers Sprague-Dawley rat after intravenous administration; value range from 0.2 to 0.3.
For experiment [14], the system named is Rattus norvegicus. Nature of the experiment: Inhibition of passive cutaneous anaphylaxis (PCA) in Charles Rivers Sprague-Dawley rat after intravenous administration; value range from 1.8 to 2.7.
The test system of experiment [15] is Rattus norvegicus. The experiment can be described thus: Inhibition of passive cutaneous anaphylaxis (PCA) in Charles Rivers Sprague-Dawley rat after intravenous administration; value range from 1.4 to 2.1.
In experiment [16] the test system is Rattus norvegicus. Nature of the experiment: Inhibition of passive cutaneous anaphylaxis (PCA) in Charles Rivers Sprague-Dawley rat after intravenous administration; value range from 1.1 to 1.8.
The subject of experiment [17] is Rattus norvegicus. Nature of the experiment: Inhibition of passive cutaneous anaphylaxis (PCA) in Charles Rivers Sprague-Dawley rat after intravenous administration; value range from 0.8 to 1.5.
Experiment [18] relates to Rattus norvegicus. The experiment can be described thus: Inhibition of passive cutaneous anaphylaxis (PCA) in Charles Rivers Sprague-Dawley rat after intravenous administration; value range from 6.2 to 7.8.
The subject of experiment [19] is Rattus norvegicus. The experiment can be described thus: Inhibition of passive cutaneous anaphylaxis (PCA) in Charles Rivers Sprague-Dawley rat after intravenous administration; value range from 1.9 to 22.5.
The test system of experiment [20] is Rattus norvegicus. Nature of the experiment: Inhibition of passive cutaneous anaphylaxis (PCA) in Charles Rivers Sprague-Dawley rat after intravenous administration; value range from 0.3 to 0.8.
Experiment [21] has as its system Rattus norvegicus. Nature of the experiment: Inhibition of passive cutaneous anaphylaxis (PCA) in Charles Rivers Sprague-Dawley rat after intravenous administration; value range from 1.5 to 2.9.

The ED50 is the dose at which the effect has come halfway, by size or by number of responders. Read a high ED50 as a need for a large dose.

Consider `COc1ccc2oc3nnnc-3c(O)c2c1`, for which it took a dose of 1.7 mg/kg to reach the 50% effect level with Rattus norvegicus [1] (ED50).
In the experiment with Rattus norvegicus [2], `CCCc1ccc(OC)c2c(O)c3nnnc-3oc12` yielded an ED50 greater than 10 mg/kg.
`COc1ccc2c(O)c3nnnc-3oc2c1C` came in with an ED50 in the experiment with Rattus norvegicus [3] of 0.4 mg/kg.
As for `Oc1c2nnnc-2oc2ccc3c(c12)CCCC3`, in the experiment with Rattus norvegicus [4], the ED50 was 2.1 mg/kg.
As to `Cc1ccc2oc3nnnc-3c(O)c2c1`, the ED50 in the experiment with Rattus norvegicus [5] is 5 mg/kg.
In the case of `Cc1c(OS(C)(=O)=O)ccc2c(O)c3nnnc-3oc12`, the ED50 with Rattus norvegicus [6] was 0.2 mg/kg.
The compound `CCCc1c(O)ccc2c(O)c3nnnc-3oc12` gave a 50% effective dose (ED50) in the experiment on Rattus norvegicus [7] of 1.1 mg/kg.
Regarding `COc1ccc2c(O)c3nnnc-3oc2c1`, the 50% effect level with Rattus norvegicus [8] (ED50) was put at a dose of 0.3 mg/kg.
Turning to `Cc1ccc2oc3nnnc-3c(O)c2c1C`, in the experiment on Rattus norvegicus [9], the ED50 came to 0.6 mg/kg.
The compound `Oc1ccc2c(O)c3nnnc-3oc2c1` gave an ED50 with Rattus norvegicus [10] of 1.8 mg/kg.
In the case of `Cc1ccc2c(O)c3nnnc-3oc2c1C`, the ED50 with Rattus norvegicus [11] worked out at 0.3 mg/kg.
In the experiment with Rattus norvegicus [12], `Cc1cc(C)c2c(O)c3nnnc-3oc2c1C` registered an ED50 of 1.2 mg/kg.
In turn, `CS(=O)(=O)Oc1ccc2c(O)c3nnnc-3oc2c1` came in with an ED50 in the experiment on Rattus norvegicus [13] of 0.2 mg/kg.
Consider `Cc1c(O)ccc2c(O)c3nnnc-3oc12`, for which the ED50 in the experiment with Rattus norvegicus [14] amounted to 2.2 mg/kg.
Turning to `Oc1cccc2oc3nnnc-3c(O)c12`, in the experiment on Rattus norvegicus [15], the ED50 turned out to be 1.7 mg/kg.
In the experiment with Rattus norvegicus [16], `Oc1c2nnnc-2oc2ccccc12` had an ED50 of 1.4 mg/kg.
Consider `CCCc1c(OC)ccc2c(O)c3nnnc-3oc12`, for which the ED50 in the experiment on Rattus norvegicus [17] was determined as 1 mg/kg.
In the experiment on Rattus norvegicus [18], `CCCc1ccc(O)c2c(O)c3nnnc-3oc12` had an ED50 of 7 mg/kg.
`Cc1cc2oc3nnnc-3c(O)c2cc1C` yielded an ED50 in the experiment on Rattus norvegicus [3] of 0.4 mg/kg.
Consider `COc1cccc2oc3nnnc-3c(O)c12`, for which the ED50 with Rattus norvegicus [19] turned out to be 3.5 mg/kg.
In the case of `Oc1c2nnnc-2oc2cc3c(cc12)CCCC3`, the ED50 with Rattus norvegicus [20] was found to be 0.6 mg/kg.
For `O=C([O-])c1cc(=O)c2c(OCC(O)COc3cccc4oc(C(=O)[O-])cc(=O)c34)cccc2o1.[Na+].[Na+]` [CROMOLYN SODIUM], in the experiment on Rattus norvegicus [21], the 50% effect level (ED50) was put at a dose of 2 mg/kg.
